Data reported in patent publication EP4620304A1, “FORMULATION COMPRISING CLOMAZONE AND DIURON” (Adama Agan Ltd., priority 2024, dated 2025).
Converted amounts (≈) assume the structure as drawn. Where two headings read alike, the source gives them in different places.

Assay: Solubility in clomazone or propylene glycol by visual verification (turbidity)
Assay type: physicochemical
Settings: organic solvent or mixture, thermodynamic from solid
Protocol: All solubilities mentioned in the present document were measured through visual verification. In a known quantity of clomazone or propylene glycol at a desired temperature, the solute (e.g. hexazinone or diuron) was added at a rate of 0.2g/5min.

Row | SMILES | solubility (23 °C, 23 °C, read-out: Solubility of Diuron in Clomazone) | solubility (40 °C, 40 °C, read-out: Solubility of Diuron in Clomazone) | solubility (54 °C, 54 °C, read-out: Solubility of Diuron in Clomazone) | solubility (23 °C, Solubility of Hexazinone in Clomazone) | solubility (23 °C, Solubility of Hexazinone in Propileneglycol) | solubility (40 °C, Solubility of Hexazinone in Clomazone) | solubility (40 °C, Solubility of Hexazinone in Propileneglycol) | solubility (54 °C, Solubility of Hexazinone in Clomazone) | solubility (54 °C, Solubility of Hexazinone in Propileneglycol)
1 | CN(C)C(=O)Nc1ccc(Cl)c(Cl)c1 [Diuron] | 28 mg/mL (≈ 120 mM) | 36 mg/mL (≈ 154 mM) | 61 mg/mL (≈ 262 mM) |  |  |  |  |  | 
2 | CN(C)c1nc(=O)n(C2CCCCC2)c(=O)n1C [Hexazinone] |  |  |  | 53 mg/mL (≈ 210 mM) | 510 mg/mL (≈ 2020 mM) | 62 mg/mL (≈ 246 mM) | 580 mg/mL (≈ 2300 mM) | 73 mg/mL (≈ 289 mM) | 630 mg/mL (≈ 2500 mM)
